Laboratory results from publication PMC5218480 (PLoS ONE, 2017).

System: MV-4-11 cells
Assay: Gene expression microarray analysis (Affymetrix PrimeView) and GSEA
Assay type: cell-based, human
Design: RFU PODN (11730768_x_at) / Fold change /veh PODN (11730768_x_at) / RFU LINC00158 (11744669_a_at) / Fold change /veh LINC00158 (11744669_a_at) / RFU DUSP10 (11751237_a_at) / Fold change /veh DUSP10 (11751237_a_at) / RFU ID3 (11757404_x_at) / Fold change /veh ID3 (11757404_x_at) / RFU PLEKHG5 (11737974_s_at) / Fold change /veh PLEKHG5 (11737974_s_at) / RFU LRRC4B (11730491_at) / Fold change /veh LRRC4B (11730491_at) / RFU GIMAP4 (11747438_a_at) / Fold change /veh GIMAP4 (11747438_a_at) / RFU KRT8 (11758183_x_at) / Fold change /veh KRT8 (11758183_x_at) / RFU CNN1 (11734310_a_at) / Fold change /veh CNN1 (11734310_a_at) / RFU VPS37D (11726825_at) / Fold change /veh VPS37D (11726825_at) / RFU C10orf10 (11716522_x_at) / Fold change /veh C10orf10 (11716522_x_at) / RFU KIR2DL2 /// KIR2DL4 /// KIR2DL5A /// KIR2DL5B /// KIR2DS1 /// KIR2DS2 /// KIR2DS3 /// KIR2DS4 /// KIR3DL3 /// KIR3DL3 /// KIR3DS1 (11738374_at) / Fold change /veh KIR2DL2 /// KIR2DL4 /// KIR2DL5A /// KIR2DL5B /// KIR2DS1 /// KIR2DS2 /// KIR2DS3 /// KIR2DS4 /// KIR3DL3 /// KIR3DL3 /// KIR3DS1 (11738374_at) / RFU C1QL1 (11718748_at) / Fold change /veh C1QL1 (11718748_at) / RFU TMPRSS4 (11747572_a_at) / Fold change /veh TMPRSS4 (11747572_a_at) / RFU HAMP (11756126_x_at) / Fold change /veh HAMP (11756126_x_at) / RFU RNFT2 (11725882_a_at) / Fold change /veh RNFT2 (11725882_a_at) / RFU NR4A2 (11747474_a_at) / Fold change /veh NR4A2 (11747474_a_at) / RFU ABCC12 (11746883_a_at) / Fold change /veh ABCC12 (11746883_a_at) / RFU TMEM136 (11760407_x_at) / Fold change /veh TMEM136 (11760407_x_at) / RFU CLDN22 /// WWC2 (11732394_at) / Fold change /veh CLDN22 /// WWC2 (11732394_at) / RFU HLA-DPB1 (11760878_x_at) / Fold change /veh HLA-DPB1 (11760878_x_at) / RFU SPINT1 (11716480_a_at) / Fold change /veh SPINT1 (11716480_a_at) / RFU GAP43 (11754022_s_at) / Fold change /veh GAP43 (11754022_s_at) / RFU A4GNT (11735810_at) / Fold change /veh A4GNT (11735810_at) / RFU PRB3 (11715151_x_at) / Fold change /veh PRB3 (11715151_x_at) / RFU TUBB4B (11761932_at) / Fold change /veh TUBB4B (11761932_at) / RFU CAPN14 (11732068_a_at) / Fold change /veh CAPN14 (11732068_a_at) / RFU TMCC2 (11721928_a_at) / Fold change /veh TMCC2 (11721928_a_at) / RFU IRGQ (11745062_a_at) / Fold change /veh IRGQ (11745062_a_at) / RFU FAM174B (11720279_a_at) / Fold change /veh FAM174B (11720279_a_at) / RFU TMPRSS4 (11748680_a_at) / Fold change /veh TMPRSS4 (11748680_a_at) / RFU FAM212B (11763350_a_at) / Fold change /veh FAM212B (11763350_a_at) / RFU PLEKHG5 (11743358_a_at) / Fold change /veh PLEKHG5 (11743358_a_at) / RFU ZSCAN30 (11745921_a_at) / Fold change /veh ZSCAN30 (11745921_a_at) / RFU CMKLR1 (11741424_a_at) / Fold change /veh CMKLR1 (11741424_a_at) / RFU LOC101060620 /// MAPK8IP1 (11723275_at) / Fold change /veh LOC101060620 /// MAPK8IP1 (11723275_at) / RFU SPTSSB (11747773_x_at) / Fold change /veh SPTSSB (11747773_x_at) / RFU PRSS12 (11739890_at) / Fold change /veh PRSS12 (11739890_at) / RFU BIN1 (11741810_x_at) / Fold change /veh BIN1 (11741810_x_at) / RFU WNT11 (11732464_a_at) / Fold change /veh WNT11 (11732464_a_at) / RFU C10orf10 (11716521_a_at) / Fold change /veh C10orf10 (11716521_a_at) / RFU C5orf56 (11738089_at) / Fold change /veh C5orf56 (11738089_at) / RFU CYB561 (11721691_x_at) / Fold change /veh CYB561 (11721691_x_at) / RFU ANKRD19P (11752326_a_at) / Fold change /veh ANKRD19P (11752326_a_at) / RFU OR2T12 /// OR2T33 /// OR2T8 (11738714_s_at) / Fold change /veh OR2T12 /// OR2T33 /// OR2T8 (11738714_s_at) / RFU VCAN (11748164_a_at) / Fold change /veh VCAN (11748164_a_at) / RFU JSRP1 (11732532_at) / Fold change /veh JSRP1 (11732532_at) / RFU KRTAP10-11 (11738290_x_at) / Fold change /veh KRTAP10-11 (11738290_x_at) / RFU MYO3A (11730013_a_at) / Fold change /veh MYO3A (11730013_a_at) / RFU EBF3 (11725865_a_at) / Fold change /veh EBF3 (11725865_a_at) / RFU CAMK2N1 (11719241_x_at) / Fold change /veh CAMK2N1 (11719241_x_at) / RFU C5orf56 (11738088_a_at) / Fold change /veh C5orf56 (11738088_a_at) / RFU OLFML3 (11715873_a_at) / Fold change /veh OLFML3 (11715873_a_at) / RFU LOC100653217 /// NTM (11731650_a_at) / Fold change /veh LOC100653217 /// NTM (11731650_a_at) / RFU MAPK11 (11762145_a_at) / Fold change /veh MAPK11 (11762145_a_at) / RFU FIZ1 (11724087_x_at) / Fold change /veh FIZ1 (11724087_x_at) / RFU OASL (11726364_x_at) / Fold change /veh OASL (11726364_x_at) / RFU SOX15 (11748057_x_at) / Fold change /veh SOX15 (11748057_x_at) / RFU CD79A (11719716_a_at) / Fold change /veh CD79A (11719716_a_at) / RFU HIST1H1D (11736915_at) / Fold change /veh HIST1H1D (11736915_at) / RFU CASKIN2 (11723855_a_at) / Fold change /veh CASKIN2 (11723855_a_at) / RFU LOC730098 (11760151_x_at) / Fold change /veh LOC730098 (11760151_x_at) / RFU OR4N2 (11742367_at) / Fold change /veh OR4N2 (11742367_at) / RFU PRRT2 (11749266_a_at) / Fold change /veh PRRT2 (11749266_a_at) / RFU SNX32 (11753110_a_at) / Fold change /veh SNX32 (11753110_a_at) / RFU CDHR5 (11726645_a_at) / Fold change /veh CDHR5 (11726645_a_at) / RFU RCAN1 (11760418_a_at) / Fold change /veh RCAN1 (11760418_a_at) / RFU FAM167A (11723789_a_at) / Fold change /veh FAM167A (11723789_a_at) / RFU FAM26E (11764081_at) / Fold change /veh FAM26E (11764081_at) / RFU ISYNA1 (11749810_s_at) / Fold change /veh ISYNA1 (11749810_s_at) / RFU ACY1 (11761880_at) / Fold change /veh ACY1 (11761880_at) / RFU 11764098_at / Fold change /veh 11764098_at / RFU SAMD14 (11745864_x_at) / Fold change /veh SAMD14 (11745864_x_at) / RFU NPB (11741838_a_at) / Fold change /veh NPB (11741838_a_at) / RFU TMPRSS6 (11731388_a_at) / Fold change /veh TMPRSS6 (11731388_a_at) / RFU KRTAP10-2 (11738614_at) / Fold change /veh KRTAP10-2 (11738614_at) / RFU ARHGAP8 /// PRR5-ARHGAP8 (11727945_x_at) / Fold change /veh ARHGAP8 /// PRR5-ARHGAP8 (11727945_x_at) / RFU KRTAP5-7 /// NADSYN1 (11734609_at) / Fold change /veh KRTAP5-7 /// NADSYN1 (11734609_at) / RFU RASL12 (11751679_a_at) / Fold change /veh RASL12 (11751679_a_at) / RFU CDKN2B (11736163_a_at) / Fold change /veh CDKN2B (11736163_a_at) / RFU PRF1 (11729649_at) / Fold change /veh PRF1 (11729649_at) / RFU, ZNF638 /// ZNF638-IT1 / Fold change vs veh, ZNF638 /// ZNF638-IT1 / RFU, PANK3 / Fold change vs veh, PANK3 / RFU, SH3YL1 / Fold change vs veh, SH3YL1 / RFU, ZEB2 / Fold change vs veh, ZEB2 / RFU, NRIP1 / Fold change vs veh, NRIP1 / RFU, PTTG1IP / Fold change vs veh, PTTG1IP / RFU, CAPN2 / Fold change vs veh, CAPN2 / RFU, MED14 / Fold change vs veh, MED14 / RFU, SNORA58 / Fold change vs veh, SNORA58 / RFU, C1orf63 / Fold change vs veh, C1orf63 / RFU, LRRFIP1 / Fold change vs veh, LRRFIP1 / RFU, NDUFAF7 / Fold change vs veh, NDUFAF7 / RFU, SLC12A2 / Fold change vs veh, SLC12A2 / RFU, IBTK / Fold change vs veh, IBTK / RFU, ESF1 / Fold change vs veh, ESF1 / Fold change vs veh, TMEM50B / RFU, TAOK1 / Fold change vs veh, TAOK1 / RFU, ACBD3 / Fold change vs veh, ACBD3 / RFU, TMA16 / Fold change vs veh, TMA16 / RFU, RWDD3 / Fold change vs veh, RWDD3 / RFU, BCAT1 / Fold change vs veh, BCAT1 / RFU, EDEM3 / Fold change vs veh, EDEM3 / RFU, TMEM33 / Fold change vs veh, TMEM33 / RFU, WDR75 / Fold change vs veh, WDR75 / RFU, AHCTF1 / Fold change vs veh, AHCTF1 / RFU, TFRC / Fold change vs veh, TFRC / RFU, ZDHHC17 / Fold change vs veh, ZDHHC17 / RFU, NOM1 / Fold change vs veh, NOM1 / RFU, ARL8B / Fold change vs veh, ARL8B / RFU, ZBTB11 / Fold change vs veh, ZBTB11 / RFU, TAMM41 / Fold change vs veh, TAMM41 / RFU, KIAA1704 /// LOC100996395 / Fold change vs veh, KIAA1704 /// LOC100996395 / RFU, ING1 / Fold change vs veh, ING1 / RFU, TRMT61B / Fold change vs veh, TRMT61B / RFU, FUBP3 / Fold change vs veh, FUBP3 / RFU, TP53 / Fold change vs veh, TP53 / RFU, TNKS2 / Fold change vs veh, TNKS2 / RFU, ZFP14 / Fold change vs veh, ZFP14 / RFU, ACTR2 / Fold change vs veh, ACTR2 / RFU, PPP3R1 / Fold change vs veh, PPP3R1 / RFU, PIK3R1 / Fold change vs veh, PIK3R1 / RFU, HNRNPA1 / Fold change vs veh, HNRNPA1 / RFU, RNF170 / Fold change vs veh, RNF170 / RFU, ZNF28 / Fold change vs veh, ZNF28 / RFU, RNGTT / Fold change vs veh, RNGTT / RFU, OGT / Fold change vs veh, OGT / RFU, BRD1 / Fold change vs veh, BRD1 / RFU, MARS / Fold change vs veh, MARS / RFU, ZNF655 / Fold change vs veh, ZNF655 / RFU, FAHD1 / Fold change vs veh, FAHD1 / RFU, BDP1 / Fold change vs veh, BDP1 / RFU, LRRCC1 / Fold change vs veh, LRRCC1 / RFU, ARID1A / Fold change vs veh, ARID1A / RFU, ZNF146 / Fold change vs veh, ZNF146 / RFU, ZNF330 / Fold change vs veh, ZNF330 / RFU, GPN3 / Fold change vs veh, GPN3 / RFU, C9orf123 / Fold change vs veh, C9orf123 / RFU, N4BP2L2 / Fold change vs veh, N4BP2L2 / RFU, ARFIP1 / Fold change vs veh, ARFIP1 / RFU, FAM179B / Fold change vs veh, FAM179B / RFU, BCL10 / Fold change vs veh, BCL10 / RFU, UHRF1BP1L / Fold change vs veh, UHRF1BP1L / RFU, BET1 / Fold change vs veh, BET1 / RFU, CNOT2 / Fold change vs veh, CNOT2 / RFU, ZNF268 / Fold change vs veh, ZNF268 / Fold change vs veh, ZNF507 / RFU, DGCR2 / Fold change vs veh, DGCR2 / RFU, WDSUB1 / Fold change vs veh, WDSUB1 / Fold change vs veh, HSP90B1 /// MIR3652 / RFU, ADSS / Fold change vs veh, ADSS / RFU, GK / Fold change vs veh, GK / RFU, ZNF148 / Fold change vs veh, ZNF148 / RFU, TAF9 / Fold change vs veh, TAF9 / RFU, SLC1A5 / Fold change vs veh, SLC1A5 / RFU, SLMO2 / Fold change vs veh, SLMO2 / RFU, ABCC4 / Fold change vs veh, ABCC4 / RFU, LOC101060439 /// RAP1B / Fold change vs veh, LOC101060439 /// RAP1B / RFU, RFX7 / Fold change vs veh, RFX7 / RFU, GTPBP10 / Fold change vs veh, GTPBP10 / RFU, CNEP1R1 / Fold change vs veh, CNEP1R1 / RFU, BIVM-ERCC5 /// ERCC5 / Fold change vs veh, BIVM-ERCC5 /// ERCC5 / RFU, ILF3 / Fold change vs veh, ILF3 / RFU 11762660_at / Fold change /veh 11762660_at / RFU VCAN (11757783_s_at) / Fold change /veh VCAN (11757783_s_at) / RFU DDX43 (11728927_at) / Fold change /veh DDX43 (11728927_at) / RFU KRT8 (11758188_x_at) / Fold change /veh KRT8 (11758188_x_at) / RFU NKD1 (11759106_at) / Fold change /veh NKD1 (11759106_at) / RFU SRD5A1 (11742802_a_at) / Fold change /veh SRD5A1 (11742802_a_at) / RFU TPSAB1 /// TPSB2 (11721975_s_at) / Fold change /veh TPSAB1 /// TPSB2 (11721975_s_at) / RFU GSTM3 (11746129_a_at) / Fold change /veh GSTM3 (11746129_a_at) / RFU IL23R (11737362_x_at) / Fold change /veh IL23R (11737362_x_at) / RFU TMEM51 (11727254_a_at) / Fold change /veh TMEM51 (11727254_a_at) / RFU PIWIL2 (11732686_x_at) / Fold change /veh PIWIL2 (11732686_x_at) / RFU ORM1 (11744905_x_at) / Fold change /veh ORM1 (11744905_x_at) / RFU CCDC152 (11743942_at) / Fold change /veh CCDC152 (11743942_at) / RFU ECM1 (11717891_a_at) / Fold change /veh ECM1 (11717891_a_at) / RFU IL23R (11748794_a_at) / Fold change /veh IL23R (11748794_a_at) / RFU TNFAIP8L3 (11732012_x_at) / Fold change /veh TNFAIP8L3 (11732012_x_at) / RFU MBOAT4 (11741988_at) / Fold change /veh MBOAT4 (11741988_at) / RFU 11764193_at / Fold change /veh 11764193_at / RFU TMEM53 (11763286_at) / Fold change /veh TMEM53 (11763286_at) / RFU MAGEB2 (11727129_at) / Fold change /veh MAGEB2 (11727129_at) / RFU TMEM200A (11744735_a_at) / Fold change /veh TMEM200A (11744735_a_at) / RFU CCDC152 (11751479_a_at) / Fold change /veh CCDC152 (11751479_a_at) / RFU FAM211A (11726209_a_at) / Fold change /veh FAM211A (11726209_a_at) / RFU RGS16 (11746705_a_at) / Fold change /veh RGS16 (11746705_a_at) / RFU VCAN (11755009_s_at) / Fold change /veh VCAN (11755009_s_at) / RFU RHOB (11743442_s_at) / Fold change /veh RHOB (11743442_s_at) / RFU RGS16 (11720943_a_at) / Fold change /veh RGS16 (11720943_a_at) / RFU RGS16 (11720944_at) / Fold change /veh RGS16 (11720944_at) / RFU, VPS4B / Fold change vs veh, VPS4B / RFU, CREB1 / Fold change vs veh, CREB1 / RFU, DNAJC13 / Fold change vs veh, DNAJC13 / RFU, GNAQ / Fold change vs veh, GNAQ / RFU, CDK5R1 / Fold change vs veh, CDK5R1 / RFU, ZRANB3 / Fold change vs veh, ZRANB3 / RFU, CUL4A / Fold change vs veh, CUL4A / RFU, CCNY / Fold change vs veh, CCNY / RFU, UFL1 / Fold change vs veh, UFL1 / RFU, COG3 / Fold change vs veh, COG3 / RFU, DIAPH2 / Fold change vs veh, DIAPH2 / RFU, SKA2 / Fold change vs veh, SKA2 / RFU, AFF3 / Fold change vs veh, AFF3 / RFU, LMF1 / Fold change vs veh, LMF1 / RFU, IPO11 / Fold change vs veh, IPO11 / RFU, DFFB / Fold change vs veh, DFFB / RFU, FOXP1 / Fold change vs veh, FOXP1 / RFU, CARD8 / Fold change vs veh, CARD8 / RFU, STRN3 / Fold change vs veh, STRN3 / RFU, ADK / Fold change vs veh, ADK / RFU, RASSF2 / Fold change vs veh, RASSF2 / RFU, WIPF1 / Fold change vs veh, WIPF1 / RFU, LARP1B / Fold change vs veh, LARP1B / RFU, RASA1 / Fold change vs veh, RASA1 / RFU, RB1 / Fold change vs veh, RB1 / RFU, PPFIA1 / Fold change vs veh, PPFIA1 / RFU, MAT2A / Fold change vs veh, MAT2A / RFU, CCT5 / Fold change vs veh, CCT5 / RFU, WDR92 / Fold change vs veh, WDR92 / RFU, CUX1 / Fold change vs veh, CUX1 / RFU, TTC7A / Fold change vs veh, TTC7A / RFU, TMEM135 / Fold change vs veh, TMEM135 / RFU, DEPTOR / Fold change vs veh, DEPTOR / RFU, CPM / Fold change vs veh, CPM / RFU, DNAJB6 / Fold change vs veh, DNAJB6 / RFU, CACNA2D3 / Fold change vs veh, CACNA2D3 / RFU, DTX4 / Fold change vs veh, DTX4 / RFU, TFCP2 / Fold change vs veh, TFCP2 / RFU, GMCL1 /// GMCL1P1 / Fold change vs veh, GMCL1 /// GMCL1P1 / RFU, AEBP2 / Fold change vs veh, AEBP2 / RFU, SNHG1 /// SNORD22 /// SNORD25 /// SNORD26 /// SNORD27 /// SNORD28 /// SNORD29 /// SNORD31 / Fold change vs veh, SNHG1 /// SNORD22 /// SNORD25 /// SNORD26 /// SNORD27 /// SNORD28 /// SNORD29 /// SNORD31 / Fold change (Aza/veh), C12orf56 (ProbeSet 11735607_a_at) / Fold change (ACY-1035/veh), C12orf56 (ProbeSet 11735607_a_at) / Fold change (Aza/veh), FGFR1OP (ProbeSet 11751329_s_at) / Fold change (ACY-1035/veh), FGFR1OP (ProbeSet 11751329_s_at) / Fold change (Aza/veh), VPS36 (ProbeSet 11739960_a_at) / Fold change (ACY-1035/veh), VPS36 (ProbeSet 11739960_a_at) / RFU SYPL1 (11715823_x_at) / Fold change /veh SYPL1 (11715823_x_at) / RFU IGFBP7 (11715501_s_at) / Fold change /veh IGFBP7 (11715501_s_at) / RFU REEP3 (11722064_at) / Fold change /veh REEP3 (11722064_at) / RFU IGLL1 (11728026_x_at) / Fold change /veh IGLL1 (11728026_x_at): dose or concentration left out as unconfirmed
Conditions: MV-4-11 cells, 48 hours

Nc1ccc(-c2cccs2)cc1NC(=O)c1ccc2c(c1)cc(C1CC1)n2CCN1CCOCC1 [ACY-1035]
RFU 11764193_at: 28.66 RFU
